Assay results reported in US20230085307A1, “PYRIDAZINONE COMPOUND AND HERBICIDE” (NISSAN CHEMICAL CORPORATION, priority 2019, published 2023).

Legend:
redroot pigweed [1] = assay: Test Example 4: herbicidal effect by soil treatment (Table 19, symbol N); assay type: in vivo, redroot pigweed (Amaranthus retroflexus)
How it was run: (§1)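 In this soil treatment, the formulated compound reached the seeds only through the soil: seeds were buried about 1.5 cm deep in sterilized diluvial soil, then the diluted emulsion was sprayed over the surface. After three weeks at 25° C. to 30° C. in a greenhouse, effects were graded on criteria from an earlier test.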

Italian ryegrass [2] = assay: Test Example 5: herbicidal effect by foliage application, plastic box (Table 20, symbol K); assay type: in vivo, Italian ryegrass (Lolium multiflorum); details: foliage application, AAH 320 g/ha
How it was run: (§2)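 Plants were sown into sterilized diluvial soil under about 1.5 cm cover and kept in a greenhouse at 25° C. to 30° C. Fourteen days on, foliage received an even spray of the diluted emulsion. Herbicidal or crop effect was judged three weeks afterwards.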

redroot pigweed [3] = assay: Test Example 5: herbicidal effect by foliage application, plastic box (Table 20, symbol N); assay type: in vivo, redroot pigweed (Amaranthus retroflexus); details: foliage application, AAH 320 g/ha
How it was run: as §2

barnyard grass [4] = assay: Test Example 4: herbicidal effect by soil treatment (Table 19, symbol H); assay type: in vivo, barnyard grass (Echinochloa crus-galli)
How it was run: as §1

windgrass [5] = assay: Test Example 4: herbicidal effect by soil treatment (Table 19, symbol L); assay type: in vivo, windgrass (Apera spica-venti)
How it was run: as §1

green foxtail [6] = assay: Test Example 4: herbicidal effect by soil treatment (Table 19, symbol G); assay type: in vivo, green foxtail (Setaria viridis)
How it was run: as §1

green foxtail [7] = assay: Test Example 5: herbicidal effect by foliage application, plastic box (Table 20, symbol G); assay type: in vivo, green foxtail (Setaria viridis); details: foliage application, AAH 320 g/ha
How it was run: as §2

chickweed [8] = assay: Test Example 5: herbicidal effect by foliage application, plastic box (Table 20, symbol P); assay type: in vivo, common chickweed (Stellaria media); details: foliage application, AAH 320 g/ha
How it was run: as §2

wild oat [9] = assay: Test Example 5: herbicidal effect by foliage application, plastic box (Table 20, symbol I); assay type: in vivo, wild oat (Avena fatua); details: foliage application, AAH 320 g/ha
How it was run: as §2

barnyard grass [10] = assay: Test Example 5: herbicidal effect by foliage application, plastic box (Table 20, symbol H); assay type: in vivo, barnyard grass (Echinochloa crus-galli); details: foliage application, AAH 320 g/ha
How it was run: as §2

oval-leafed pondweed = assay: Test Example 1: herbicidal activity, application before weed generation under submerged conditions (Table 16, symbol C); assay type: in vivo, oval-leafed pondweed (Monochoria vaginalis)
How it was run: (§3)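 Emulsion formulation, water-diluted to set dose, was put onto the flooded surface (4 cm depth, alluvial soil) the same day weeds were sown and 2.5-leaf rice transplanted. After 3 weeks at 25-30 °C under glass, each species was rated 0 (≤5% kill) to 5 (≥90% kill).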

velvetleaf [11] = assay: Test Example 5: herbicidal effect by foliage application, plastic box (Table 20, symbol M); assay type: in vivo, velvetleaf (Abutilon theophrasti); details: foliage application, AAH 320 g/ha
How it was run: as §2

rice flat sedge = assay: Test Example 3: herbicidal effect by foliage application, Wagner pot (Table 18, symbol E); assay type: in vivo, rice flat sedge (Cyperus iria)
How it was run: (§4)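 Plants were sown in alluvial soil held under 0.1–0.5 cm standing water and grown 14 days in a greenhouse at 25–30 °C. An emulsifiable formulation, water-diluted to the set dose, was then sprayed onto the foliage, and effects were scored three weeks later using previously defined criteria.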

persian speedwell [12] = assay: Test Example 5: herbicidal effect by foliage application, plastic box (Table 20, symbol R); assay type: in vivo, Persian speedwell (Veronica persica); details: foliage application, AAH 320 g/ha
How it was run: as §2

Japanese bulrush = assay: Test Example 1: herbicidal activity, application before weed generation under submerged conditions (Table 16, symbol B); assay type: in vivo, Japanese bulrush (Schoenoplectus juncoides)
How it was run: as §3

windgrass [13] = assay: Test Example 5: herbicidal effect by foliage application, plastic box (Table 20, symbol L); assay type: in vivo, windgrass (Apera spica-venti); details: foliage application, AAH 320 g/ha
How it was run: as §2

barnyard grass [14] = assay: Test Example 3: herbicidal effect by foliage application, Wagner pot (Table 18, symbol H); assay type: in vivo, barnyard grass (Echinochloa crus-galli)
How it was run: as §4

southern crabgrass [15] = assay: Test Example 4: herbicidal effect by soil treatment (Table 19, symbol F); assay type: in vivo, southern crabgrass (Digitaria ciliaris)
How it was run: as §1

Italian ryegrass [16] = assay: Test Example 4: herbicidal effect by soil treatment (Table 19, symbol K); assay type: in vivo, Italian ryegrass (Lolium multiflorum)
How it was run: as §1

chickweed [17] = assay: Test Example 4: herbicidal effect by soil treatment (Table 19, symbol P); assay type: in vivo, common chickweed (Stellaria media)
How it was run: as §1

velvetleaf [18] = assay: Test Example 4: herbicidal effect by soil treatment (Table 19, symbol M); assay type: in vivo, velvetleaf (Abutilon theophrasti)
How it was run: as §1

Chinese sprangletop = assay: Test Example 3: herbicidal effect by foliage application, Wagner pot (Table 18, symbol D); assay type: in vivo, chinese sprangletop (Leptochloa chinensis)
How it was run: as §4

lambsquarters [19] = assay: Test Example 5: herbicidal effect by foliage application, plastic box (Table 20, symbol O); assay type: in vivo, lambsquarters (Chenopodium album); details: foliage application, AAH 320 g/ha
How it was run: as §2

late watergrass = assay: Test Example 1: herbicidal activity, application before weed generation under submerged conditions (Table 16, symbol A); assay type: in vivo, late watergrass (Echinochloa oryzicola)
How it was run: as §3

blackgrass = assay: Test Example 5: herbicidal effect by foliage application, plastic box (Table 20, symbol J); assay type: in vivo, blackgrass (Alopecurus myosuroides); details: foliage application, AAH 320 g/ha
How it was run: as §2

wild oat [20] = assay: Test Example 4: herbicidal effect by soil treatment (Table 19, symbol I); assay type: in vivo, wild oat (Avena fatua)
How it was run: as §1

lambsquarters [21] = assay: Test Example 4: herbicidal effect by soil treatment (Table 19, symbol O); assay type: in vivo, lambsquarters (Chenopodium album)
How it was run: as §1

persian speedwell [22] = assay: Test Example 4: herbicidal effect by soil treatment (Table 19, symbol R); assay type: in vivo, Persian speedwell (Veronica persica)
How it was run: as §1

southern crabgrass [23] = assay: Test Example 5: herbicidal effect by foliage application, plastic box (Table 20, symbol F); assay type: in vivo, southern crabgrass (Digitaria ciliaris); details: foliage application, AAH 320 g/ha
How it was run: as §2

[24] = amount of applied herbicide 320 g/ha
[25] = evaluated three weeks after application

CCCC(=O)Oc1c(C)nn(C)c(=O)c1-c1c(-c2ccccc2OCOC)sc2ccccc12 [1-115]
N: redroot pigweed, herbicidal effect rating (redroot pigweed [1]; AAH 320 g/ha): 3 (Herbicidal rate of 40% or more and less than 70%)
K: Italian ryegrass, herbicidal effect (Italian ryegrass [2]; three weeks after application): 0 (Herbicidal rate of 5% or less (almost no effect))
N: redroot pigweed, herbicidal effect (redroot pigweed [3]; three weeks after application): 5 (Herbicidal rate of 90% or more (almost completely withered))
H: barnyard grass, herbicidal effect rating (barnyard grass [4]; AAH 320 g/ha): 2 (Herbicidal rate of 20% or more and less than 40%)
L: windgrass, herbicidal effect rating (windgrass [5]; AAH 320 g/ha): 0 (Herbicidal rate of 5% or less (almost no effect))
G: green foxtail, herbicidal effect rating (green foxtail [6]; AAH 320 g/ha): 0 (Herbicidal rate of 5% or less (almost no effect))
G: green foxtail, herbicidal effect (green foxtail [7]; three weeks after application): 4 (Herbicidal rate of 70% or more and less than 90%)
P: chickweed, herbicidal effect (chickweed [8]; three weeks after application): 5 (Herbicidal rate of 90% or more (almost completely withered))
I: wild oat, herbicidal effect (wild oat [9]; three weeks after application): 2 (Herbicidal rate of 20% or more and less than 40%)
H: barnyard grass, herbicidal effect (barnyard grass [10]; three weeks after application): 2 (Herbicidal rate of 20% or more and less than 40%)
Herbicidal effect on C: oval-leafed pondweed (grade 0-5) (oval-leafed pondweed; 320 g/ha applied herbicide): 2 (Herbicidal rate of 20% or more and less than 40%)
M: velvetleaf, herbicidal effect (velvetleaf [11]; three weeks after application): 3 (Herbicidal rate of 40% or more and less than 70%)
herbicidal effect on E (rice flat sedge), rating 0-5 (rice flat sedge; 320 g/ha): 2 (Herbicidal rate of 20% or more and less than 40%)
R: persian speedwell, herbicidal effect (persian speedwell [12]; three weeks after application): 2 (Herbicidal rate of 20% or more and less than 40%)
Herbicidal effect on B: Japanese bulrush (grade 0-5) (Japanese bulrush; 320 g/ha applied herbicide): 0 (Herbicidal rate of 5% or less (almost no effect))
L: windgrass, herbicidal effect (windgrass [13]; three weeks after application): 4 (Herbicidal rate of 70% or more and less than 90%)
herbicidal effect on H (barnyard grass), rating 0-5 (barnyard grass [14]; 320 g/ha): 4 (Herbicidal rate of 70% or more and less than 90%)
F: southern crabgrass, herbicidal effect rating (southern crabgrass [15]; AAH 320 g/ha): 0 (Herbicidal rate of 5% or less (almost no effect))
K: Italian ryegrass, herbicidal effect rating (Italian ryegrass [16]; AAH 320 g/ha): 0 (Herbicidal rate of 5% or less (almost no effect))
P: chickweed, herbicidal effect rating (chickweed [17]; AAH 320 g/ha): 0 (Herbicidal rate of 5% or less (almost no effect))
M: velvetleaf, herbicidal effect rating (velvetleaf [18]; AAH 320 g/ha): 0 (Herbicidal rate of 5% or less (almost no effect))
herbicidal effect on D (Chinese sprangletop), rating 0-5 (Chinese sprangletop; 320 g/ha): 2 (Herbicidal rate of 20% or more and less than 40%)
O: lambsquarters, herbicidal effect (lambsquarters [19]; three weeks after application): 2 (Herbicidal rate of 20% or more and less than 40%)
Herbicidal effect on A: late watergrass (grade 0-5) (late watergrass; 320 g/ha applied herbicide): 2 (Herbicidal rate of 20% or more and less than 40%)
J: blackgrass, herbicidal effect (blackgrass; three weeks after application): 4 (Herbicidal rate of 70% or more and less than 90%)
I: wild oat, herbicidal effect rating (wild oat [20]; AAH 320 g/ha): 0 (Herbicidal rate of 5% or less (almost no effect))
O: lambsquarters, herbicidal effect rating (lambsquarters [21]; AAH 320 g/ha): 0 (Herbicidal rate of 5% or less (almost no effect))
R: persian speedwell, herbicidal effect rating (persian speedwell [22]; AAH 320 g/ha): 0 (Herbicidal rate of 5% or less (almost no effect))
F: southern crabgrass, herbicidal effect (southern crabgrass [23]; three weeks after application): 4 (Herbicidal rate of 70% or more and less than 90%)

CCCC(=O)Oc1c(C)nn(C)c(=O)c1-c1c(-c2ccc3c(c2)OC(F)(F)O3)sc2ccc(F)cc12 [2-393]
herbicidal effect, N: redroot pigweed (redroot pigweed [1]; [24]): 0 (Herbicidal rate of 5% or less (almost no effect))
K: Italian ryegrass, herbicidal effect (criteria 0-5) (Italian ryegrass [2]; [25]): 4 (Herbicidal rate of 70% or more and less than 90%)
N: redroot pigweed, herbicidal effect (criteria 0-5) (redroot pigweed [3]; [25]): 4 (Herbicidal rate of 70% or more and less than 90%)
herbicidal effect, H: barnyard grass (barnyard grass [4]; [24]): 0 (Herbicidal rate of 5% or less (almost no effect))
herbicidal effect, L: windgrass (windgrass [5]; [24]): 5 (Herbicidal rate of 90% or more (almost completely withered))
herbicidal effect, G: green foxtail (green foxtail [6]; [24]): 0 (Herbicidal rate of 5% or less (almost no effect))
G: green foxtail, herbicidal effect (criteria 0-5) (green foxtail [7]; [25]): 4 (Herbicidal rate of 70% or more and less than 90%)
P: chickweed, herbicidal effect (criteria 0-5) (chickweed [8]; [25]): 5 (Herbicidal rate of 90% or more (almost completely withered))
I: wild oat, herbicidal effect (criteria 0-5) (wild oat [9]; [25]): 4 (Herbicidal rate of 70% or more and less than 90%)
H: barnyard grass, herbicidal effect (criteria 0-5) (barnyard grass [10]; [25]): 5 (Herbicidal rate of 90% or more (almost completely withered))
Herbicidal effect, C: oval-leafed pondweed (oval-leafed pondweed; [24]): 0 (Herbicidal rate of 5% or less (almost no effect))
M: velvetleaf, herbicidal effect (criteria 0-5) (velvetleaf [11]; [25]): 4 (Herbicidal rate of 70% or more and less than 90%)
herbicidal effect on E: rice flat sedge (rice flat sedge; [24]): 3 (Herbicidal rate of 40% or more and less than 70%)
R: persian speedwell, herbicidal effect (criteria 0-5) (persian speedwell [12]; [25]): 5 (Herbicidal rate of 90% or more (almost completely withered))
Herbicidal effect, B: Japanese bulrush (Japanese bulrush; [24]): 0 (Herbicidal rate of 5% or less (almost no effect))
L: windgrass, herbicidal effect (criteria 0-5) (windgrass [13]; [25]): 5 (Herbicidal rate of 90% or more (almost completely withered))
herbicidal effect on H: barnyard grass (barnyard grass [14]; [24]): 5 (Herbicidal rate of 90% or more (almost completely withered))
herbicidal effect, F: southern crabgrass (southern crabgrass [15]; [24]): 0 (Herbicidal rate of 5% or less (almost no effect))
herbicidal effect, K: Italian ryegrass (Italian ryegrass [16]; [24]): 4 (Herbicidal rate of 70% or more and less than 90%)
herbicidal effect, P: chickweed (chickweed [17]; [24]): 4 (Herbicidal rate of 70% or more and less than 90%)
herbicidal effect, M: velvetleaf (velvetleaf [18]; [24]): 0 (Herbicidal rate of 5% or less (almost no effect))
herbicidal effect on D: Chinese sprangletop (Chinese sprangletop; [24]): 1 (Herbicidal rate of 5% or more and less than 20%)
O: lambsquarters, herbicidal effect (criteria 0-5) (lambsquarters [19]; [25]): 4 (Herbicidal rate of 70% or more and less than 90%)
Herbicidal effect, A: late watergrass (late watergrass; [24]): 3 (Herbicidal rate of 40% or more and less than 70%)
J: blackgrass, herbicidal effect (criteria 0-5) (blackgrass; [25]): 1 (Herbicidal rate of 5% or more and less than 20%)
herbicidal effect, I: wild oat (wild oat [20]; [24]): 0 (Herbicidal rate of 5% or less (almost no effect))
herbicidal effect, O: lambsquarters (lambsquarters [21]; [24]): 0 (Herbicidal rate of 5% or less (almost no effect))
herbicidal effect, R: persian speedwell (persian speedwell [22]; [24]): 4 (Herbicidal rate of 70% or more and less than 90%)
F: southern crabgrass, herbicidal effect (criteria 0-5) (southern crabgrass [23]; [25]): 1 (Herbicidal rate of 5% or more and less than 20%)
